Measured values published in patent publication US20250259704A1, “SYSTEMS AND METHODS FOR CELL-FREE ITERATIVE SITE SATURATION MUTAGENESIS AND ITS APPLICATION FOR THE DIRECTED EVOLUTION OF ENZYMES CATALYZING UNNATURAL REACTIONS” (Northwestern University, priority 2022, published 2025).

Assays:
Format in all cases: biochemical, Marinactinospora thermotolerans
amide synthetase McbA [1] = experiment: Amidation assay with purified McbA variants, products analyzed by LC-MS; conditions: for Fold-Increase in yield: best ML-predicted variant (ML-McbA) versus wt-McbA for the named product, purified enzyme 0.5 mg/mL, n=3
Procedure: (§1) Amide products (along with acid substrates and some adenylated acid intermediates) were analyzed using an Agilent G6125B Single Quadrupole LC/MSD system equipped with an electrospray ionization source set to positive ionization mode. The quenched samples were centrifuged for 10 min at 4,500×g to remove precipitated proteins. A separate 384-well plate for sample injection into the HPLC-MS was prepared by diluting 5 μL of the quenched samples with 25 μL of methanol using the Integra VIAFLO. Trace amounts of compounds were detected using MS, while many compounds were present in high enough concentration to quantify by diode array detector (DAD) at 254 nm. Compounds were separated on a Luna C18 Column (Phenomenex 00D-4251-B0) using mobile phases (A) H2O with 0.1% formic acid and (B) Acetonitrile. The general method for chromatographic separation was carried out using the following gradients at a constant flow rate of 0.5 mL/min: 0 min 5% B; 1 min 5% B; 4 min 95% B; 4.5 min 95% B; 5 min 5% B. For the MS, capillary voltage was set at 3 kV, and nitrogen gas was used for nebulizing (35 psig) and drying (12 l/min, 350° C.). The MS was calibrated using Tuning Mix (Agilent G2421-60001) before measurements were taken. MS data were acquired with a scan range of 50-600 m/z with various SIM m/z's according to which compound the inventors were screening for. LC-MS data were collected and analyzed using Agilent OpenLab CDS ChemStation software. The product yield was calculated by dividing the DAD peak area for the amide product by the sums of the peak areas of both the amide and the acid substrate.
Amidation assays for the purified McbA variants were set up similarly as described above. 8-μL reactions were assembled in triplicate, containing […], 10 mM MgCl2, 10 U/mL pyrophosphatase (Sigma I5907), 0.5 mg/mL McbA, 10% v/v DMSO, and volume to fill of 50 mM potassium phosphate pH 7.5. For assaying the production of cinchocaine and procainamide, substrates were decreased in stoichiometric amounts to 20 mM and 10 mM, respectively. This was to compensate for an observed poor solubility of these two acids (2-butoxyquinoline-4-carboxylic acid and 4-aminobenzoic acid) in the purified reaction at 10% v/v DMSO. Reactions were incubated at 37° C. for 16 hours and then quenched with 25-μL of methanol. The CAS numbers of all chemicals used in the hot spot screens, as well as the amide standards the inventors purchased, can be found in Table 1.
With the MLDE strategy validated, the approach could enable parallelized protein engineering for a wide variety of molecules (FIG. 14A). Starting with an identified target reaction from our substrate scope screen (FIGS. 5A-5F), we could use the same instance of our 1,280 single mutant McbA variant library to perform an HSS, select four hot spots, train and implement our machine learning model, and experimentally test the top 24 predictions (FIG. 14B). This approach was used to engineer distinct McbA mutants for the synthesis of an additional six pharmaceutical compounds (FIGS. 14B-14C). After identifying the best predicted variant for each reaction, the best variant for each reaction was expressed and purified, and the activity for each compound compared to wt-McbA (FIG. 14D). Fold-increase in yield observed compares wt-McbA to ML-McbA (n=3) for each small-molecule pharmaceutical. Increases in yield of the best mutant were observed ranging from 1.6-fold to 34-fold over wt-McbA for the six compounds tested.

amide synthetase McbA [2] = experiment: Substrate scope screen of McbA (all-by-all acids and amines, RP-HPLC); conditions: for wt conversion: conversion to the named amide product by wild-type McbA, ~1 μM enzyme, 25 mM substrates, 10% DMSO
Procedure: as §1, with “MS data were acquired with a scan range of 50-600 m/z with various SIM m/z's according to which compound the inventors were screening for.” left out
(§2) All high-throughput assays (hot spot screen, iterative site saturation mutagenesis, substrate scope, ML predictions validation, and ML prediction exploration) were assembled in 384-well plates (Bio-Rad) using an Integra VIAFLO liquid handling robot. […] The amidation assay was initiated by adding 3-μL of crude CFPS reaction containing an expressed McbA variant, with final concentrations of 25 mM ATP, 25 mM acid, 25 mM amine, 10% v/v DMSO, and ˜1 μM of enzyme (determined by ^14C-leucine incorporation using previously described protocols^66). […]

amide synthetase McbA [3] = experiment: High-throughput amidation assay with crude CFPS-expressed McbA variants (hot spot screen, ISM)
Procedure: as §1, with “MS data were acquired with a scan range of 50-600 m/z with various SIM m/z's according to which compound the inventors were screening for.” left out
as §2

Row | Molecule | Fold-Increase in yield (amide synthetase McbA [1]) [fold] | other results
1 | CCN(CC)CCNC(=O)c1ccc(N)c(Cl)c1 [Declopramide] | 2.7 | –
2 | COc1cc(C(=O)NC2CCCNC2)cc(OC)c1OC (centres unmarked) [Troxipide] | 34 | –
3 | CCN(CC)CCNC(=O)c1ccc(N)cc1 [Procainamide] | 10 | –
4 | COc1cc(C(=O)NCc2ccc(OCCN(C)C)cc2)cc(OC)c1OC [Trimethobenzamide] | 4.1 | –
5 | CCN1CCCC1CNC(=O)c1cc(S(N)(=O)=O)ccc1OC (centres unmarked) [Sulpiride] | 6 | –
6 | COc1ccc(C(=O)NCc2ccc(OCCN(C)C)cc2)cc1OC [Itopride] | 1.6 | –
7 | CCN(CC)CCNC(=O)c1cc(Cl)c(N)cc1OC [Metoclopramide] | – | wt conversion (amide synthetase McbA [2]): 3%
8 | CCCCOc1cc(C(=O)NCCN(CC)CC)c2ccccc2n1 [Cinchocaine] | 1.7 | wt conversion (amide synthetase McbA [2]): 2%
9 | wt-McbA: wild-type amide bond synthetase McbA from Marinactinospora thermotolerans with CSL-tag, SEQ ID NO: 2 (protein, CSL-tag) MEKKIWSHPQFEKGGSGENLYFQGGYARRVMDGIGEVAVTGAGGSVTGARLRHQVRLLAHALTEAGIPPGRGVACLHANTWRAIALRLAVQAIGCHYVGLRPTAAVTEQARAIAAADSAALVFEPSVEARAADLLERVSVPVVLSLGPTSRGRDILAASVPEGTPLRYREHPEGIAVVAFTSGTTGTPKGVAHSSTAMSACVDAAVSMYGRGPWRFLIPIPLSDLGGELAQCTLATGGTVVLLEEFQPDAVLEAIERERATHVFLAPNWLYQLAEHPALPRSDLSSLRRVVYGGAPAVPSRVAAARERMGAVLMQNYGTQEAAFIAALTPDDHARRELLTAVGRPLPHVEVEIRDDSGGTLPRGAVGEVWVRSPMTMSGYWRDPERTAQVLSGGWLRTGDVGTFDEDGHLHLTDRLQDIIIVEAYNVYSRRVEHVLTEHPDVRAAAVVGVPDPDSGEAVCAAVVVADGADPDPEHLRALVRDHLGDLHVPRRVEFVRSIPVTPAGKPDKVKVRTWFTD | – | conversion (yield) of moclobemide (amide synthetase McbA [3]; final screening conditions, moclobemide synthesis, 25 mM ATP, acid, amine, 10% v/v DMSO, 37° C. 16 hours): 12%; amide bond formation step for troxipide (amide synthetase McbA [1]; proficient at adenylating 3,4,5-trimethoxybenzoic acid, intermediate seen by LCMS): unable to catalyze amide bond formation; stereoselectivity (amide synthetase McbA [2]; sulpiride synthesis): strongly favoring the synthesis of S-sulpiride over R-sulpiride
10 | qm-McbAmetoclopramide: quadruple mutant of McbA from ISM campaign for metoclopramide, SEQ ID NO: 146 (protein) MEKKIWSHPQFEKGGSGENLYFQGGYARRVMDGIGEVAVTGAGGSVTGARLRHQVRLLAHALTEAGIPPGRGVACLHANTWRAIALRLAVQAIGCHYVGLRPTAAVTEQARAIAAADSAALVFEPSVEARAADLLERVSVPVVLSLGPTSRGRDILAASVPEGTPLRYREHPEGIASVAFTSGTTGTPKGVAHSSTAMSACVDAAVSMYGRGPWRFLIPIPLSDLGGELAQCTLATGGTVVLLEEFQPDAVLEAIERERATHVFLAPNWLYQLAEHPALPRSDLSSLRRVVYGGAPAVPSRVAAARERMGAVLMQNYGCQEAFFIAALTPDDHARRELLTAVGRPLPHVEVEIRDDSGGTLPRGAVGEVWVRSPMTMSGYWRDPERTAQVLSGGWLRTGDVGTFDEDGHLHLTDRLQDIIIVETYNVYSRRVEHVLTEHPDVRAAAVVGVPDPDSGEAVCAAVVVADGADPDPEHLRALVRDHLGDLHVPRRVEFVRSIPVTPAGKPDKVKVRTWFTD | – | activity over wt-McbA (amide synthetase McbA [3]; metoclopramide synthesis, after three rounds of ISM): ~30 fold
11 | ml-McbAtroxipide: best ML-predicted McbA variant for troxipide, SEQ ID NO: 155 (protein) MEKKIWSHPQFEKGGSGENLYFQGGYARRVMDGIGEVAVTGAGGSVTGARLRHQVRLLAHALTEAGIPPGRGVACLHANTWRAIALRLAVQAIGCHYVGLRPTAAVTEQARAIAAADSAALVFEPSVEARAADLLERVSVPVVLSLGPTSRGRDILAASVPEGTPLRYREHPEGIAAVAFTSGTTGTPKGVAHSSTAMSACVDAAVSMYGRGPWRFLIPIPLSDLGGELAQCTLATGGTVVLLEEFQPDAVLEAIERERATHVFLAPNWLYQLAEHPALPRSDLSSLRRVVYGGAPAVPSRVAAARERMGAVLMQNYGTQEALFIAALTPDDHARRELLTAVGRPLPHVEVEIRDDSGGTLPRGAVGEVWVRSPMTMSGYWRDPERTAQVLSGGWLRTGDVGTFDEDGHLHLTDRLQDIIIVETYNVYSVRVEHVLTEHPDVRAAAVVGVPDPDSGEAVCAAVVVADGADPDPEHLRALVRDHLGDLHVPRRVEFVRSIPVTPAGKPDKVKVRTWFTD | – | increase in activity (amide synthetase McbA [1]; troxipide synthesis, versus wt-McbA): 34 fold
